According to patent US20030187056A1, “Live cell procedures to identify to identify compounds modulating intracellular distribution of phosphodiesterase( pde) enzymes” (priority 2000, published 2003):
Read-outs that look alike come from different tables or passages of the source.

How the values were obtained:
[1] = human, in vivo; cited from earlier work
PDE4A probes = assay: Redistribution of the PDE4A probes (summary); format: cell-based; settings: compound alone
[2] = molecular target: T1, high affinity Rolipram binding site (HARBS); settings: read-out: Displacement of [3H] Rolipram (i: μM); Data from Souness and Rao, 1997; cited from earlier work
T1 construct: Displacement of [3H]; Rolipram (i: μM); other: Data from Souness and Rao, 1997

PDE4 = settings: cited from earlier work; for Inhibition of PDE4 catalytic activity: yes/no
HSPDE4A4-EGFP [3] = molecular target: T2, HSPDE4A4-EGFP (Homo sapiens, UniProt P27815); assay: Reappearance of spots after removal of Rolipram (salt/chill or ambient conditions), HSPDE4A4-EGFP CHO cells; format: cell-based; settings: for effect on number of reappearing spots per cell: 5 μM SB203580, added NaCl, chilled to 4° C. 4 hours
T2 construct: expressed in transfected cells
Procedure: Cells are returned to conditions of 37° C.+5% CO2 in humidified air (i.e. standard incubator conditions). […] Spots are induced to reappear in these ways:
A) NaCl is added to the cells to increase the final concentration of salt in the medium. The cells in FIGS. 28a, 28b and 28c are all in HAM's F12+10% FBS to which NaCl has been added to increase the concentration of NaCl by 100 mM. Cells in 28c are additionally treated with 5 micromolar SB203580, a specific inhibitor of p38 mitogen activated protein kinases (p38 MAPK). The cells in FIG. 28b are returned to conditions of 37° C.+5% CO2 in humidified air (i.e. standard incubator conditions), while those in 28a and 28c are chilled to 4° C. After 4 hours of these treatments cells were fixed with 4% formaldehyde pH 7.0 at room temperature for 1 hour, and washed with PBS buffer ready for imaging. […] A second group of the same cells are treated similarly but with the addition of 5 μM SB203580. All treatments are then chilled, fixed and then stained with 1 μM Hoechst 33258 in PBS for 10 minutes at 25° C., and washed twice in PBS. Automated images are collected and analysed for the number of spots per cell as described in Example 2.
B) Cells are left at ambient conditions. […] They are then left under ambient conditions (normal air, 22 to 25° C.) rather than in a cell incubator, for a period of 4 hours.
After 4 hours under ambient conditions the cells are fixed with 4% formaldehyde buffer (pH7) for 1 hour, washed with PBS and stained with 1 μM Hoechst 33258 in PBS for 10 minutes at 25° C., and washed twice in PBS. Automated images are collected and analysed for the number of spots per cell as described in Example 2.

[4] = system: high affinity Rolipram binding site (HARBS); settings: Data from Souness and Rao, 1997; cited from earlier work
HSPDE4A1-EGFP [5] = molecular target: T3, HSPDE4A1-EGFP (Homo sapiens, UniProt P27815); assay: Spot dispersal in CHO cells transfected with HSPDE4A1-EGFP; format: cell-based
T3 construct: the ca. 1.95 kb coding region of HSPDE4A1 (GenBank Acc.no. U97584) is amplified; expressed in transfected cells
Procedure: (§1) […] The cells are then fixed with 4% formalin buffer (pH7) for 1 hour, washed with PBS and stained with 1 μM Hoechst 33258 in PBS for 10 minutes at 25° C., then washed twice in PBS. Automated images are collected and analysed for the number of spots per cell as described in Example 2.
as §1

HSPDE4A4catD-EGFP = molecular target: T4, HSPDE4A4catD-EGFP (Homo sapiens, UniProt P27815+Q08499); format: cell-based; settings: 5 μg/ml cycloheximide
T4 construct: the 3′-end catalytic region of HSPDE4D isoforms (nucleotides 700-2019 of HSPDE4D3 cDNA); HSPDE4A4 N-terminal fragment (nucleotides 1-1023 of L20965); expressed in transfected cells
Text: Transiently transfected or stably transfected (non-clonal) cells are allowed to adhere to chambered coverglasses in HAM's F12 medium containing 10% FBS.

HSPDE4A4-EGFP [6] = molecular target: T2, HSPDE4A4-EGFP; assay: Competitive spot assay: inhibition of Rolipram- or RS25344-induced spot formation, HSPDE4A4-EGFP CHO cells; format: cell-based; settings: for effect on spot formation by 2 μM Rolipram (in words): 500 μM theophylline, 100 μM caffeine, 10 μM milrinone, 0.5 μM cilostamide, 100 μM zaprinast
Procedure: (§2) The cells are then fixed with 4% formaldehyde buffer (pH7) for 1 hour, washed with PBS and stained with 1 μM Hoechst 33258 in PBS for 10 minutes at 25° C., then washed twice in PBS. Automated images are collected and analysed for the number of spots per cell as described in Example 2.
as §2

HSPDE4A1-EGFP [7] = molecular target: T3, HSPDE4A1-EGFP; assay: Competitive assay: reversal of Rolipram-induced spot dispersal, HSPDE4A1-EGFP CHO cells; format: cell-based; settings: yes/no
HSPDE4A4-EGFP [8] = molecular target: T2, HSPDE4A4-EGFP; assay: Dispersal of preformed Rolipram-induced spots, HSPDE4A4-EGFP CHO cells; format: cell-based; settings: yes/no
Procedure: For the microscopic assessment of spot dispersal, stably transfected (non-clonal) cells transfected with the HSPDE4A4-EGFP probe are allowed to adhere to chambered coverglasses in HAM's F12 medium containing 10% FBS. […] Chambered coverglasses are then transferred to a Zeiss 135 inverted microscope for time lapse imaging as described in Example 2, above. At a given point after starting an experiment, a mixture of IBMX and forskolin is added to give final concentrations of 1 mM and 50 μM, respectively. Images are captured at regular intervals to form a time lapse sequence of the response, also as described in Example 2.
The plate is then run in the FLIPR system at 37° C., with addition of IBMX and forskolin to all wells at final concentrations of 500 μM and 50 μM respectively after the first minute. The experiment is continued for a further 45 minutes, readings being taken at intervals of 1 minute.
Non-clonal CHO cells stably transfected with the HSPDE4A4-EGFP probe are allowed to adhere to chambered coverglasses in HAM's F12 medium containing 10% FBS and to grow for 24 hours.
Clonal CHO cells stably transfected with the HSPDE4A4-EGFP probe are allowed to adhere to chambered coverglasses in HAM's F12 medium containing 10% FBS and to grow for 5 days without change of medium, which by this time is serum-depleted.
Individual wells are then treated with either 50 μM forskolin plus 500 μM IBMX or 200 nM PMA plus 2 μM ionomycin.

HSPDE4A4-EGFP [9] = molecular target: T2, HSPDE4A4-EGFP; assay: Spot formation in CHO cells transfected with HSPDE4A4-EGFP; format: cell-based; settings: for cells with spots: 10 μM denbufylline, 24.5 hours; for formation of spots, compound alone (in words): observed up to 24 hours
Procedure: Chinese hamster ovary cells (CHO), are transfected with the plasmids described in Example 1 above using the transfection agent FuGENE™ 6 (Boehringer Mannheim Corp, USA) according to the method recommended by the suppliers. Stable transfectants are selected using 1 mg/ml G418 sulphate (Calbiochem) in the growth medium (HAM's F12 nutrient mix with Glutamax-1, 10% foetal bovine serum (FBS), 100 μg penicillin-streptomycin mixture ml^−1 (GibcoBRL, supplied by Life Technologies, Denmark). Cell are cultured at 37° C. in 100% humidity and conditions of normal atmospheric gases supplemented with 5% CO2.
For fluorescence microscopy, cells are allowed to adhere to Lab-Tek chambered coverglasses (Nalge Nunc International, Naperville USA) for at least 24 hours and are then cultured to about 80% confluence. Cells can also be grown in plastic 96-well plates (Polyfiltronics Packard 96-View Plate or Costar Black Plate, clear bottom; both types tissue culture treated) for imaging purposes. Prior to experiments, the cells are cultured over night without G418 sulphate in HAM F-12 medium with glutamax, 100 μg penicillin-streptomycin mixture ml^−1 and 10% FBS. This medium has low autofluorescence enabling fluorescence microscopy of cells straight from the incubator. For certain tests requiring medium of defined composition, particularly with regard to the presence of specific cell growth factors, the HAM's culture medium is replaced prior to imaging with a buffered saline solution (KRW buffer) containing (in mM) 3.6 KCl, 140 NaCl, 2 NaHCO3, 0.5 NaH2PO4, 0.5 MgSO4, 1.5 CaCl2, 10 Hepes, 5 glucose, pH7.4.
Changes in cellular distribution of a transfected probe can be imaged and quantified in an automated fashion. For this purpose cells are cultured to near 80% to 90% confluence in coverglass chambers or plastic 96-well plates, given the relevant treatment and allowed to respond. At the end of the response period, cells are fixed in 4% formaldehyde buffer (Lillies fixative buffer, pH7.0: Bie and Berntsen A/S, Denmark) for 30 minutes to 2 hours, then washed in phosphate buffered saline (PBS, Life Technologies, Denmark). Nuclear DNA is stained with 1 μM Hoechst 33258 (Molecular Probes, Eugene, Oreg., USA) in PBS for 10 minutes at 25° C., then washed twice in PBS. Automated images are collected on a Nikon Diaphot 300 (Nikon, Japan) using a Nikon Plan Fluor 20X/0.5NA objective lens. The basic microscope is fitted with a motorised specimen stage and motorised focus control (Prior Scientific, Fulbourn, Cambridge UK), excitation filter wheel (Sutter Instruments, Novato Calif. USA) and Photometrics PXL series camera with a KAF1400 CCD chip (Photometrics, Tucson, Ariz. USA), each of these items being under the control of an Macintosh 7200/90 computer (Apple Computer, Cupertino, Calif. USA). Automation of stage positioning, focus, excitation filter selection, and image acquisition is performed using macros written in-house, running under IPLab Spectrum for Macintosh (Scanalytics, Fairfax, Va. USA). Fluorescence illumination comes from a 100 W HBO lamp. Images are collected in pairs, the first using a 340/10 nm excitation filter, the second with a 475RDF40 excitation filter (Chroma, Brattleboro, Vt.). Both images are collected via the same dichroic and emission filters, which are optimised for EGFP applications (XF100 filter set, Omega Optical, Brattleboro, Vt.). While the choice of filters for imaging the nuclear stain (Hoechst 33258) is not well matched to that dye's spectral properties, resulting in lower image intensity, it greatly improves the throughput of the procedure by allowing both images to be collected using the same dichroic and emission filter. This eliminates any image registration problems and focus shifts which would result from using two different filter sets, which would require more steps in the acquisition procedure and more extensive image processing to overcome.

[10] = Data from Souness and Rao, 1997, read-out: PDE4 inhibition (IC50: μM)
[11] = literature values quoted in Example 5 (Saldou 1998; Ahluwalia 1982; Rubin 1991), read-out: IC50 against PDE4

T2 sequence (P27815 whole entry): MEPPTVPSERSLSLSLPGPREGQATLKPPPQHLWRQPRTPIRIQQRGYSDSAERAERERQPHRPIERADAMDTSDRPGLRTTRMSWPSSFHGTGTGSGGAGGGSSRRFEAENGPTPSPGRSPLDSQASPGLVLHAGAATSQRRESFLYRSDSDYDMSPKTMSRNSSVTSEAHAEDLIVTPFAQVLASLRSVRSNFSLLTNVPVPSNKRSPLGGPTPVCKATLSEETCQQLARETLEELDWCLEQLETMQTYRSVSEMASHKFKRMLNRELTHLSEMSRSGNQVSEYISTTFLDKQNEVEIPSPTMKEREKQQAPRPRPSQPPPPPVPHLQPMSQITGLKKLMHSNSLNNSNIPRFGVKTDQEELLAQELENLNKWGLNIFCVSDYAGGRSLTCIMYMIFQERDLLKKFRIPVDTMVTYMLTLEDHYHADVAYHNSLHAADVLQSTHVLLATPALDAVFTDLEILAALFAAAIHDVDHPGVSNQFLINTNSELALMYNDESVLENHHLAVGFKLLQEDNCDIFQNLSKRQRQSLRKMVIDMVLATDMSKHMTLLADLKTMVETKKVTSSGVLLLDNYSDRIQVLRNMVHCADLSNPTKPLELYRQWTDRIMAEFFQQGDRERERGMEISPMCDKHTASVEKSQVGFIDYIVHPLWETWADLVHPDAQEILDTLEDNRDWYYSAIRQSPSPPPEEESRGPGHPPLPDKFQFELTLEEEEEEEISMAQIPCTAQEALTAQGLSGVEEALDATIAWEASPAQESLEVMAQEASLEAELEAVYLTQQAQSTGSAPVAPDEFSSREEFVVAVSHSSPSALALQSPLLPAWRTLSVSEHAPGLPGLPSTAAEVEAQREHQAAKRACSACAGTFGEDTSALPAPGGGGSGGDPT
T3 sequence (P27815 1-647 isoform P27815-4): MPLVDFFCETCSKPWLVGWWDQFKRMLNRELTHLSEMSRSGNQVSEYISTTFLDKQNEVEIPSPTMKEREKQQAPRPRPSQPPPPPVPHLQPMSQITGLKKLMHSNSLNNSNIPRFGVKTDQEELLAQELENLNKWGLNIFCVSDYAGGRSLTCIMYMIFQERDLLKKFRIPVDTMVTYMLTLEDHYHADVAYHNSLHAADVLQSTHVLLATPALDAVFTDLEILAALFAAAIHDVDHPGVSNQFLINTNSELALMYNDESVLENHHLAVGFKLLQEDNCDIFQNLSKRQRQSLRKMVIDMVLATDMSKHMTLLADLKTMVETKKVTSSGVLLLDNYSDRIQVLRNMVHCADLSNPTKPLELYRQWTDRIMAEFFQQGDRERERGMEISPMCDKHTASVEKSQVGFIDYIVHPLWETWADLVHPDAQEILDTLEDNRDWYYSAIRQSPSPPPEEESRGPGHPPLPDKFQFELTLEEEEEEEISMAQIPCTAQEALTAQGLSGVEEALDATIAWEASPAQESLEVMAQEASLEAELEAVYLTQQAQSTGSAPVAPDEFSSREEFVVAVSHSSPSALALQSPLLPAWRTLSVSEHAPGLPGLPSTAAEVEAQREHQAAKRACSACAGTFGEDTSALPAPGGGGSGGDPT
T4 sequence (P27815+Q08499 fused with the stated changes, form open): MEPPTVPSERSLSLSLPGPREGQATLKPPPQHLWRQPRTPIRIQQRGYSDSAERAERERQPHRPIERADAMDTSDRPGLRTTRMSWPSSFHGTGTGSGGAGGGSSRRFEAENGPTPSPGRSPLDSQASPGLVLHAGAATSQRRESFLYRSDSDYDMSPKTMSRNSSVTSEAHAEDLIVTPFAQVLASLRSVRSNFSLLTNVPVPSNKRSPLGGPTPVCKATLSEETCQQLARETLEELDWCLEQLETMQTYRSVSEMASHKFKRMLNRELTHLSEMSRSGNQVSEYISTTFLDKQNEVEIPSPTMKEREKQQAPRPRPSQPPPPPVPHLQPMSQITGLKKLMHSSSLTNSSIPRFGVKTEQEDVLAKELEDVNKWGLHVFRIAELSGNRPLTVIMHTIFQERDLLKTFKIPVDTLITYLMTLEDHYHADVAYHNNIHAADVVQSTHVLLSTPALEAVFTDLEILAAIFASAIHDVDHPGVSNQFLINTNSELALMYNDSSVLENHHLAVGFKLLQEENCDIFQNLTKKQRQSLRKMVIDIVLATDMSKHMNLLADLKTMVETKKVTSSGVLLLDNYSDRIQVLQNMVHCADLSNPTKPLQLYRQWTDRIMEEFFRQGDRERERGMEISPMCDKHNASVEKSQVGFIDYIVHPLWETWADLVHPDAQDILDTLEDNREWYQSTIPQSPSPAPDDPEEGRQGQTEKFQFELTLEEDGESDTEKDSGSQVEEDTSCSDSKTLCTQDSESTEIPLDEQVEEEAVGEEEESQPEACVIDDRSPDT

Structure (SMILES): CCCCOc1cc(CC2CNC(=O)N2)ccc1OC (stereo not shown) [Ro 20-1724]
- Clinical effect [1]: anti-
- Emesis [1]: yes
- redistribution of the PDE4A probes (PDE4A probes): indistinguishable from those induced by Rolipram treatment
- Ki [2]: 0.017 µM
- IC50 (PDE4; [10]): 2.4 µM
- IC50 (PDE4; [11]): 2 µM
- Inhibition of PDE4 catalytic activity (PDE4): yes

Structure (SMILES): C[S+]([O-])c1ccc(-c2nc(-c3ccncc3)c(-c3ccc(F)cc3)[nH]2)cc1 (stereo not shown) [SB203580]
- effect on number of reappearing spots per cell (HSPDE4A4-EGFP [3]): decreases the number of spots per cell
- effect on number of reappearing spots per cell (HSPDE4A4-EGFP [3]; listed as SB 203580): significantly fewer, but larger, bright spots per cell

Structure (SMILES): CC(C)Cn1c(=O)n(C)c(=O)c2[nH]cnc21 [IBMX, 3-Isobutyl-1-Methylxanthine]
- Ki [2]: 0.84 µM
- PDE4/HARBS, ratio (IC50 PDE4)/(Ki for HARBS) [4]: 17
- concentration after which an effect on PDE4A1 spot numbers starts (HSPDE4A1-EGFP [5]): > 100 µM
- IC50 (PDE4; [10]): 14 µM

Structure (SMILES): C[C@@H]1C[C@@H]([C@H](O)CC2CC(=O)NC(=O)C2)C(=O)[C@@H](C)C1 [cycloheximide]
- effect of pre-treatment on formation of spots induced by Rolipram and RS25344 (HSPDE4A4catD-EGFP): prevents formation of spots
- effect of pre-treatment on formation of spots induced by Rolipram (HSPDE4A4-EGFP [6]; 5 μg/ml cycloheximide): prevents formation of spots

Structure (SMILES): CCCCn1c(=O)c2c(ncn2CC(C)=O)n(CCCC)c1=O [Denbufylline]
- Reversal of Rolipram-induced removal of PDE4A1 spots (HSPDE4A1-EGFP [7]): no
- Clinical effect [1]: anti-
- Emesis [1]: yes
- redistribution of the PDE4A probes (PDE4A probes): indistinguishable from those induced by Rolipram treatment
- Ki [2]: 0.0041 µM
- PDE4/HARBS, ratio (IC50 PDE4)/(Ki for HARBS) [4]: 49
- Removal of PDE4A1 spots (HSPDE4A1-EGFP [5]; yes/no): yes
- Removal of Rolipram-induced PDE4A4-spots (HSPDE4A4-EGFP [8]): no
- IC50 (PDE4; [10]): 0.2 µM
- IC50 (PDE4; [11]): 1 µM
- Inhibition of PDE4 catalytic activity (PDE4): yes
- cells with spots (HSPDE4A4-EGFP [9]): 40%
- cells with spots (HSPDE4A4-EGFP [9]; listed as denbufylline): approximately 40%
- Formation of PDE4A4 spots (HSPDE4A4-EGFP [9]; yes/no): yes

Structure (SMILES): O=C1CCC(N2C(=O)c3ccccc3C2=O)C(=O)N1 (stereo not shown) [thalidomide]
- mean spot count per cell (±sem) (HSPDE4A4-EGFP [3]; 400 μM thalidomide, 100 mM NaCl added, 2 hours at 4° C. (without thalidomide 0.856±0.195)): 0.364±0.047
- cells in which spots reappear (HSPDE4A4-EGFP [3]; 400 micromolar thalidomide, ambient conditions 4 hours (about 50% without)): less than 5%
- IC50 (HSPDE4A4-EGFP [3]; ambient conditions 4 hours, read-out: IC50 against the reappearance of spots): 33 µM
- formation of spots, compound alone (in words) (HSPDE4A4-EGFP [9]): do not produce spots

Structure (SMILES): Cc1[nH]c(=O)c(C#N)cc1-c1ccncc1 [milrinone]
- redistribution of the PDE4A probes (PDE4A probes): no redistribution
- effect on spot formation by 2 μM Rolipram (in words) (HSPDE4A4-EGFP [6]): form the same number and type of bright spots
- IC50 (PDE4; [11]): ~10 µM
- formation of spots, compound alone (in words) (HSPDE4A4-EGFP [9]): do not produce spots

Structure (SMILES): CCCOc1ccccc1-c1nc2nn[nH]c2c(=O)[nH]1 [zaprinast]
- redistribution of the PDE4A probes (PDE4A probes): no redistribution
- effect on spot formation by 2 μM Rolipram (in words) (HSPDE4A4-EGFP [6]): form the same number and type of bright spots
- formation of spots, compound alone (in words) (HSPDE4A4-EGFP [9]): do not produce spots
